Experiments:
Proteus mirabilis 18 = assay: Minimal inhibitory concentration, two-fold agar-plate dilution method; assay type: cell-based; conditions: HI-agar, 37° C., 20 hours
Procedure: (§1) (A) Minimal inhibitory concentration (1) Test Method In vitro antibacterial activity was determined by the two-fold agar-plate dilution method as described below. One loopful of an overnight culture of each test strain in Trypticase-soy broth (10^8 viable cells per ml) was streaked on heart infusion agar (HI-agar) containing graded concentrations of representative test compound, and the minimal inhibitory concentration (MIC) was expressed in terms of μg/ml after incubation at 37° C. for 20 hours.

Proteus vulgaris 2 = assay: as above; assay type: cell-based; conditions: HI-agar, 37° C., 20 hours
Procedure: as §1

Urinary excretion = assay type: in vivo; conditions: rat; rats, oral administration of 100 mg/kg, urine 0 to 6 and 6 to 24 hours, bioassay; read-out: Urinary recovery in 24 hours (%)
Procedure: Urine of rats was collected with a urine collector at 0 to 6, and 6 to 24 hours after oral administration of 100 mg/kg of the test antibiotic. The antibiotic levels in the urine samples were bioassayed with the standard solution prepared with M/15 phosphate buffer (pH 7.0) and the urinary recovery in 24 hours was calculated.

in vivo = conditions: rat, po, 100 mg/kg
Procedure: Rats anesthetized with pentobarbital were fixed in supine position, and a polyethylene cannula was inserted into the bile duct. Bile samples were collected at 0 to 3, 3 to 6, and 6 to 24 hours after oral administration of 100 mg/kg of the test antibiotic. The antibiotic levels in the bile samples were bioassayed with the standard solutions prepared with M/15 phosphate buffer (pH 7.0) and the biliary recovery in 24 hours were calculated.

O=C(O)CO/N=C(\C(=O)NC1C(=O)N2C(C(=O)O)=C(CSc3ccc4nnnn4n3)CSC12)c1cscn1 (stereo not drawn) [Test Compound (1), 7-[2-Carboxymethoxyimino-2-(4-thiazolyl)acetamido]-3-(tetrazolo[1,5-b]pyridazin-6-yl)thiomethyl-3-cephem-4-carboxylic acid (syn isomer)]
MIC (Proteus mirabilis 18): < 0.025 µg/mL | MIC (Proteus vulgaris 2): < 0.025 µg/mL | dose excreted at 24 h (Urinary excretion): 20.2% | dose excreted at 24 h (in vivo): 8.97%

Reference: patent US4499088A, “Cephem compounds” (Fujisawa Pharmaceutical Co., Ltd., priority 1983, dated 1985)
